Assay: Toxicity (LC50, lethal concentration 50%)
Assay type: in vivo
Source text: In addition, […], toxicity is further reduced by […], which classifies it in the field of gases considered to be “practically non-toxic” (toxicity classification 5, according to the Hodge and Sterner toxicity scale).

## N#CC(F)(C(F)(F)F)C(F)(F)F [Heptafluoroisobutyronitrile, 2,3,3,3-tetrafluoro-2-trifluoromethyl propanenitrile]
humans
  specific toxicity for humans: no specific toxicity
Pure heptafluoroisobutyronitrile
  LC50 (lethal concentration, 50%): greater than 15,000 ppm

Reference: patent US9837801B2, “Gas-insulated medium or high-voltage electrical apparatus including carbon dioxide, oxygen, and heptafluoro-isobutyronitrile” (Alstom Technology Ltd., priority 2013, dated 2017)
